Data set [1] concerns HEK 293T cells. The data set is classed as cell-based, human.
The next data set concerns Caco-2. It counts as cell-based, human.
In data set [2] the target is T1, P-gp (Homo sapiens, UniProt P08183).
For data set [3], the system named is HepG2, Caco-2, RAW 264.7, and HEK 293T cells. To be noted: read-out: IC50 range in studied cells.
A further data set concerns RAW 264.7. The data set is classed as cell-based, mouse.
The test system of another data set is various mammalian cells. The conditions noted are these: cited from earlier work.
Data set [4] deals with HEK293T. It counts as cell-based, human.
Another data set relates to epithelial cell layers. The conditions noted are these: cited from earlier work.
The subject of a further data set is HEK293T cells. The data set is classed as cell-based, human.
The subject of the next data set is HepG2. The data set is classed as cell-based, human.
Data set [5] addresses T1, P-gp. To be noted: cited from earlier work.
Data set [6] relates to HEK 293T cells.
The next data set deals with cells. To be noted: cited from earlier work.
The next data set concerns mice. To be noted: mouse, in vivo, po; cited from earlier work.
Data set [7] relates to TK6, and human hepatic HepaRG cells. To be noted: 25 µM; cited from earlier work.
The subject of data set [8] is HEK293T. It counts as cell-based, human. This is another data set of the same source.
The test system of a further data set is TNF-α. To be noted: cited from earlier work.
Another data set concerns hepatocyte cells. To be noted: cited from earlier work.
The conditions of data set [9]: 5.2–15.5 mM; cited from earlier work.
The test system of a further data set is human fibroblasts. To be noted: 50 µM for 24 h; cited from earlier work.
A further data set concerns HEK293 cells. The conditions noted are these: for 2 h; cited from earlier work.
Another data set can be described thus: in vitro. The conditions noted are these: human (HepG2, Caco-2, HEK 293T); mouse (RAW 264.7).
The mark [10] stands for this setting: human (Caco-2), mouse (RAW 264.7).

Read-outs that look alike come from different tables or passages of the source. Marks after values point to notes of the source that are not given here. Where only a bound is given, the exact number is not on record here.

The IC50 is the concentration at which inhibition is half-maximal.

T1 sequence (P08183 whole entry, looked up): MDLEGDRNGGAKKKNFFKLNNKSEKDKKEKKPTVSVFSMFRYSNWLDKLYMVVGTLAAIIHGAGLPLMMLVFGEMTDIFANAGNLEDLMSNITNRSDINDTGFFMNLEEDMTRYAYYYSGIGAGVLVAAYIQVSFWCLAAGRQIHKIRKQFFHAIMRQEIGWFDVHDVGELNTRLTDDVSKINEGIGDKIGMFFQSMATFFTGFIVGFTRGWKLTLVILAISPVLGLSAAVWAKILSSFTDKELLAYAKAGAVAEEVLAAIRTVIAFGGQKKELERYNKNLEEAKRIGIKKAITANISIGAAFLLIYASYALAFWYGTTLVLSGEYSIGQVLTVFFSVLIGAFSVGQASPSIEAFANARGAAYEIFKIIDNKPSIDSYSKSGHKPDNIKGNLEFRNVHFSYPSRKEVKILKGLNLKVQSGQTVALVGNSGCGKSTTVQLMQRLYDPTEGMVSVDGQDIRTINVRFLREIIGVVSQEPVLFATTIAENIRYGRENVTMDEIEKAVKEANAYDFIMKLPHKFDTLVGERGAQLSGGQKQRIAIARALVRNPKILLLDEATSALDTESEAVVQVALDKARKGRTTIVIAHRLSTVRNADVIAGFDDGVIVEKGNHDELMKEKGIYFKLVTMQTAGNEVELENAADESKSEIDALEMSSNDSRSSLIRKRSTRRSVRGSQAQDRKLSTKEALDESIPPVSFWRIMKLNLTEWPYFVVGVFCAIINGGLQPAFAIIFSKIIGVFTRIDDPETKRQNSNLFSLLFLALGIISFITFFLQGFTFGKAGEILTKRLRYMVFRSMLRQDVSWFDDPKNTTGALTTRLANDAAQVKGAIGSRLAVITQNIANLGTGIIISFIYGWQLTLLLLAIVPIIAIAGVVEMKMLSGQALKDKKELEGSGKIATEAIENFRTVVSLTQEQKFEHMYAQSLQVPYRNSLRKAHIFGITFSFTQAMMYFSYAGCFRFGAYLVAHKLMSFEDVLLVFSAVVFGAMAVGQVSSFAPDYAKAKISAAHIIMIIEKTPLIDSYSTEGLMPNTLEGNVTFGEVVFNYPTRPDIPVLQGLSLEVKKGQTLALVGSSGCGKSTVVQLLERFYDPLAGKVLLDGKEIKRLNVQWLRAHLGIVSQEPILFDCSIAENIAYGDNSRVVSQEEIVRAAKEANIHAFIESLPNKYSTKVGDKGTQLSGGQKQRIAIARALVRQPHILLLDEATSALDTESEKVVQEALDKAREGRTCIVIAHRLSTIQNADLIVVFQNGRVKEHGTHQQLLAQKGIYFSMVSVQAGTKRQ

`CC(=O)OC[C@]12C[C@H](OC(=O)CC(C)C)C(C)=C[C@H]1O[C@@H]1[C@H](O)[C@@H](OC(C)=O)[C@@]2(C)[C@]12CO2` [T-2, T-2 toxin]: in the data set on HEK 293T cells [1], the “combination index, silibinin 3.4 µM” value turned out to be 0.99 ± 0.02 Add; the “combination index, silibinin 6.8 µM” value was 1.46 ± 0.14 Ant; the “combination index, silibinin 13.6 µM” value amounted to 1.82 ± 0.06 Ant; the “combination index, silibinin 27.3 µM” value is recorded as 1.41 ± 0.11 Ant. Besides, in the data set with HEK 293T cells [1], the “combination index, silibinin 54.5 µM” value is recorded as 0.91 ± 0.04 Add; the “combination index, silibinin 109.00 µM” value is given as 1.00 ± 0.08 Add; the “silibinin pretreatment concentration with the strongest antagonism” value stood at 13.6 µM; the “type of interaction, silibinin 3.4 µM” value is 0.99 ± 0.02 Add (key: Syn: Combination index (CI) < 0.9; Add: 0.9 ≤ CI ≤ 1; Ant: CI > 1). Besides, in the data set on HEK 293T cells [1], the “type of interaction, silibinin 6.8 µM” value is 1.46 ± 0.14 Ant (key: Syn: Combination index (CI) < 0.9; Add: 0.9 ≤ CI ≤ 1; Ant: CI > 1); the “type of interaction, silibinin 13.6 µM” value is 1.82 ± 0.06 Ant (key: Syn: Combination index (CI) < 0.9; Add: 0.9 ≤ CI ≤ 1; Ant: CI > 1); the “type of interaction, silibinin 27.3 µM” value is 1.41 ± 0.11 Ant (key: Syn: Combination index (CI) < 0.9; Add: 0.9 ≤ CI ≤ 1; Ant: CI > 1); the “type of interaction, silibinin 54.5 µM” value is 0.91 ± 0.04 Add (key: Syn: Combination index (CI) < 0.9; Add: 0.9 ≤ CI ≤ 1; Ant: CI > 1). Besides, the “type of interaction, silibinin 109.00 µM” value in the data set on HEK 293T cells [1] is reported as 1.00 ± 0.08 Add (key: Syn: Combination index (CI) < 0.9; Add: 0.9 ≤ CI ≤ 1; Ant: CI > 1). In addition, in the data set with Caco-2 cells, the “metabolites found by non-target U-HPLC-MS analysis” value was 3´-hydroxy, 3-hydroxy-15-deacetyl; the “transepithelial transport, Apical Medium” value is recorded as 11.63 ± 0.62^a %; the “transepithelial transport, Basolateral Medium” value is on record as 28.13 ± 0.48^e %; the “transepithelial transport, Caco-2 Cells” value was 0.01 ± 0.00^a %. Besides, in the data set on Caco-2 cells, the “transepithelial transport, Raw 264.7 Cells” value is given as 0.01 ± 0.00^a % and the “transepithelial transport, Total” value is 39.77 ± 0.98^b %. This compound had an IC50 with Caco-2 of 13.4 ± 1.07 nM. The “P-gp activation (ATP consumption)” value at P-gp [2] is reported as “activated P-gp in dose-dependent manner”. Also, in data set [3], the IC50 was in the range of 3.57 to 13.4 nM. In the data set with RAW 264.7, the half-inhibitory concentration (IC50) was 3.57 ± 0.27 nM. In addition, the half-maximal inhibitory concentration (IC50) with various mammalian cells is 3 to 500 nM. Half-maximal inhibition with HEK293T [4] (IC50) required 3.87 ± 0.27 nM. In addition, in the data set with epithelial cell layers, the “transport through the epithelial cell layers” value was not above 24%. For the same compound, the 50% inhibitory concentration (IC50) with HEK293T cells (read-out: IC50 halving the HEK293T cells viability) was 7 nM. Moreover, the IC50 in the data set on HepG2 came to 11.4 ± 0.37 nM. Also, the P-gp substrate result on P-gp [5] was “not a substrate of P-gp”.

Turning to `CC1=C[C@H]2O[C@@H]3[C@H](O)C[C@](C)([C@@]2(CO)[C@H](O)C1=O)[C@]31CO1` [DON, deoxynivalenol], in the data set on HEK 293T cells [6], the “percentage of DNA in comet tail with respect to the negative control” value (“percentage of DNA in comet tail” for short) is recorded as “significantly increased”. In addition, in the data set on cells, the “concentration with statistically significant decrease in viability of cells” value is listed as 1 µM. Moreover, in the data set with Caco-2 cells (setting [10]), the “transepithelial transport, Apical Medium” value was 73.33 ± 2.90^f %; the “transepithelial transport, Basolateral Medium” value is given as 21.48 ± 0.91^cde %; the “transepithelial transport, Caco-2 Cells” value is recorded as 0.00 ± 0.00^a %; the “transepithelial transport, Raw 264.7 Cells” value is listed as 0.01 ± 0.00^a %. Further, the “transepithelial transport, Total” value in the data set with Caco-2 cells (setting [10]) is given as 94.83 ± 2.14^e %. In addition, on P-gp [2], the “P-gp activation (ATP consumption)” value was “activated P-gp in dose-dependent manner”. Further, the LD50 for mice in the data set with mice was 46 to 78 mg/kg. The “transport through the epithelial cell layers” value in the data set with epithelial cell layers (after 24 h) is recorded as “up to 38%”. Moreover, the genotoxicity entry in data set [7] is on record as “failed to induce genotoxicity”. For the same compound, in the data set on HEK293T [8], the “combination index, mixture of DAS (6.58 nM)” value stood at 0.88 ± 0.17 Syn; the “combination index, mixture of HT-2 (21.22 nM)” value is reported as 0.87 ± 0.04 Syn; the “combination index, mixture of T-2 (3.87 nM)” value turned out to be 1.29 ± 0.13 Ant; the “type of interaction, mixture of DAS (6.58 nM)” value is given as 0.88 ± 0.17 Syn (key: Syn: Combination index (CI) < 0.9; Add: 0.9 ≤ CI ≤ 1; Ant: CI > 1). Also, in the data set on HEK293T [8], the “type of interaction, mixture of HT-2 (21.22 nM)” value was 0.87 ± 0.04 Syn (key: Syn: Combination index (CI) < 0.9; Add: 0.9 ≤ CI ≤ 1; Ant: CI > 1) and the “type of interaction, mixture of T-2 (3.87 nM)” value is recorded as 1.29 ± 0.13 Ant (key: Syn: Combination index (CI) < 0.9; Add: 0.9 ≤ CI ≤ 1; Ant: CI > 1).

For the compound `COc1cc(C2Oc3cc([C@H]4Oc5cc(O)cc(O)c5C(=O)[C@@H]4O)ccc3OC2CO)ccc1O` (stereo partly shown) [Silibinin, silibinin, reference compound], the “percentage of DNA in comet tail” value with HEK 293T cells [6] was “did not induce genotoxic effects”. Besides, the “decrease of cell viability compared to cells cultured with a single mycotoxin” value in the data set on HEK 293T cells [1] is on record as “about 30%”. For the same compound, in the data set with TNF-α, the “OTA-induced TNF-α level reduced to” value was 70% and the “doses completely blocking OTA-induced TNF-α” value is 1 to 26 µM. For the same compound, in the data set on hepatocyte cells, the “effect against OTA cytotoxicity” value is given as “protective effect”. In addition, in the data set on Caco-2 cells, the “metabolites found by non-target U-HPLC-MS analysis” value is given as “sulfate derivative”. In the data set on Caco-2 cells (setting [10]), the “transepithelial transport, Apical Medium” value is 44.34 ± 1.96^cd %; the “transepithelial transport, Basolateral Medium” value is recorded as 23.24 ± 1.79^de %; the “transepithelial transport, Caco-2 Cells” value is 0.00 ± 0.00^a %; the “transepithelial transport, Raw 264.7 Cells” value is listed as 0.00 ± 0.00^a %. Moreover, the “transepithelial transport, Total” value with Caco-2 cells (setting [10]) is listed as 67.58 ± 2.95^cd %. Further, the “amount of DNA in the comet tail compared to positive control” value in data set [9] is given as “reduced the amount of DNA in the comet tail”. For the same compound, the “reduction of cell viability by sole silibinin treatment” value in the data set on HEK293T cells is given as 45%. Also, the cytotoxic effect result with human fibroblasts is given as “no significant cytotoxic effect”.

With `C[C@H]1CCCC(=O)CCC/C=C/c2cc(O)cc(O)c2C(=O)O1` [ZEA, zearalenone], in the data set on HEK293 cells, the “concentration range damaging DNA in a concentration-dependent manner” value is 2.5 to 20 µM. Further, the “percentage of DNA in comet tail” value in the data set on HEK 293T cells [6] is listed as “no significant DNA damage”. Moreover, in the data set on cells, the “concentration with statistically significant decrease in viability of cells” value is given as 25 µM. In the data set with Caco-2 cells (setting [10]), the “transepithelial transport, Apical Medium” value is reported as 32.23 ± 1.71^bc %; the “transepithelial transport, Basolateral Medium” value is 54.24 ± 2.38^gh %; the “transepithelial transport, Caco-2 Cells” value is 0.19 ± 0.01^ab %; the “transepithelial transport, Raw 264.7 Cells” value is given as 0.05 ± 0.01^a %. In addition, the “transepithelial transport, Total” value in the data set with Caco-2 cells (setting [10]) is 86.70 ± 0.67^de %. Further, the “P-gp activation (ATP consumption)” value at P-gp [2] is “activated P-gp in dose-dependent manner”. Moreover, in the data set with HEK293T [8], the “combination index, mixture of DAS (6.58 nM)” value is 0.85 ± 0.07 Syn; the “combination index, mixture of HT-2 (21.22 nM)” value was found to be 0.83 ± 0.03 Syn; the “combination index, mixture of T-2 (3.87 nM)” value was 0.92 ± 0.01 Add; the “type of interaction, mixture of DAS (6.58 nM)” value was 0.85 ± 0.07 Syn (key: Syn: Combination index (CI) < 0.9; Add: 0.9 ≤ CI ≤ 1; Ant: CI > 1). In the data set with HEK293T [8], the “type of interaction, mixture of HT-2 (21.22 nM)” value was 0.83 ± 0.03 Syn (key: Syn: Combination index (CI) < 0.9; Add: 0.9 ≤ CI ≤ 1; Ant: CI > 1) and the “type of interaction, mixture of T-2 (3.87 nM)” value is listed as 0.92 ± 0.01 Add (key: Syn: Combination index (CI) < 0.9; Add: 0.9 ≤ CI ≤ 1; Ant: CI > 1). In “in vitro”, this compound registered an IC50 of more than 50 nM.

Source of the values: PMC7150870 (Toxins, 2020).
